Measurements from patent US20170231177A1, “REGENERATION AND TRANSFORMATION OF COSMOS BIPINNATUS PLANTLETS” (Novin Giti Gene R&D Center (N.G.G), priority 2015, published 2017).

Tests used:
[1] = test system: cotyledon explants of Cosmos Bipinnatus; assay: Shoot number of regenerated cotyledon explants on regeneration media; format: cell-based
Method: (§1) In this example, direct regeneration of Cosmos Bipinnatus plantlets was carried out with the following steps according to one or more aspects of the present disclosure. First, Cosmos Bipinnatus seeds were sterilized. The sterilization of Cosmos Bipinnatus seeds was carried out by soaking the seeds in an ethanol solution with a concentration of about 70% volume/volume for about 1 min followed by soaking the seeds in a hypochlorite sodium solution with a concentration of about 2% weight/volume for about 10 min, and then the seeds were rinsed three times with sterile distilled water.
(§2) The sterilized Cosmos Bipinnatus seeds were then germinated in order to obtain cotyledons of Cosmos Bipinnatus plant. Seed germination was carried out by putting the sterilized Cosmos Bipinnatus seeds under a sterile condition in an agar-solidified MS medium. Then, the sterilized Cosmos Bipinnatus seeds in the agar-solidified MS medium were incubated in a growth chamber with photoperiods of 16 hours in light and 8 hours in dark under fluorescent illuminations (60 μmol m^2 s^1) at 22° C.±1° C. for a period of 3 days. The cotyledons of Cosmos Bipinnatus plant that grew from germinated seeds after 3 days were cut and used as explants in the following steps of the direct regeneration process.
(§3) The obtained explants were then cultured onto a regeneration medium for regenerating cotyledon explants of Cosmos Bipinnatus. To this end, 10 explants, with their adaxial side down, were cultured onto the regeneration medium in a Petri dish for regeneration in cotyledons to occur. The regeneration in cotyledons was assessed by examining shoot-inducing ability in the presence of different regeneration medium compositions. The different regeneration medium compositions included respectively different concentrations of plant growth regulators and ethylene inhibitors. The regeneration media contained benzyl adenine (BA), silver nitrate, and adenine sulfate with different concentrations. An MS medium supplemented with 3% sucrose was used as a basal medium and the pH was adjusted to about 5.8 using a 1 N solution of NaOH.
As used herein, “shoot number” is the average number of shoots that are generated on the 10 explants used in the experiments for three replications.

[2] = test system: cotyledon explants of Cosmos Bipinnatus; assay: Regeneration frequency of cotyledon explants on regeneration media; format: cell-based
Method: as §1, §2
as §3, with “An MS medium supplemented with 3% sucrose was used as a basal medium and the pH was adjusted to about 5.8 using a 1 N solution of NaOH.” left out

[3] = BA 2.5, AgNO3 0, adenine sulfate 0 mg/l in MS medium
[4] = BA 5, AgNO3 0, adenine sulfate 0 mg/l in MS medium
[5] = BA 7.5, AgNO3 0, adenine sulfate 0 mg/l in MS medium

Work on `Nc1ncnc2nc[nH]c12.O=S(=O)(O)O` [Adenine sulfate, adenine sulfate] yielded a Shoot number ([1]; BA 0, AgNO3 0, adenine sulfate 10 mg/l in MS medium) of 0.00 ± 0.00, a Shoot number ([1]; BA 0, AgNO3 0, adenine sulfate 20 mg/l in MS medium) of 0.00 ± 0.00 and a Shoot number ([1]; BA 0, AgNO3 0, adenine sulfate 40 mg/l in MS medium) of 0.00 ± 0.00. The Shoot number ([1]; BA 0, AgNO3 0, adenine sulfate 80 mg/l in MS medium) was 0.00 ± 0.00.

For `O=[N+]([O-])[O-].[Ag+]` [AgNO3, silver nitrate], the Shoot number ([1]; BA 0, AgNO3 2.5, adenine sulfate 0 mg/l in MS medium) was 0.00 ± 0.00, the Shoot number ([1]; BA 0, AgNO3 5, adenine sulfate 0 mg/l in MS medium) was 0.00 ± 0.00 and the Shoot number ([1]; BA 0, AgNO3 7.5, adenine sulfate 0 mg/l in MS medium) was 0.00 ± 0.00.

`c1ccc(CNc2ncnc3nc[nH]c23)cc1` [BA, benzyladenine] was tested, and the Regeneration frequency [2, 3] was 6.25 ± 0.00%, the Regeneration frequency [2, 4] was 6.25 ± 1.70% and the Regeneration frequency [2, 5] was 5.25 ± 2.06%. It also gave a Shoot number [1, 3] of 1.34 ± 0.33, a Shoot number [1, 4] of 0.34 ± 0.28 and a Shoot number [1, 5] of 0.67 ± 0.33.
